Values quoted from earlier work, collected in PMC3545186 (Biochemical Pharmacology, 2013).

Legend:
[1] = Asian breast cancer patient population; cited from earlier work
[2] = cited from earlier work

Compound	exposure in individuals homozygous mutant for ABCB1 C1236T, G2677T/A and C3435T [1]	higher plasma concentrations in Abcb1a/1b knockout mice compared to wild type (WT) mice [2]
COc1cccc2c1C(=O)c1c(O)c3c(c(O)c1C2=O)C[C@@](O)(C(=O)CO)C[C@@H]3O[C@H]1C[C@H](N)[C@H](O)[C@H](C)O1 [doxorubicin]	significantly higher exposure	
COc1cc([C@@H]2c3cc4c(cc3[C@@H](O[C@@H]3O[C@@H]5CO[C@@H](C)O[C@H]5[C@H](O)[C@H]3O)[C@H]3COC(=O)[C@H]23)OCO4)cc(OC)c1O [etoposide]		1.4 fold
